Measurements published in patent publication US20250275967A1, “FREEZE DRIED COMPOSITIONS” (Janssen Sciences Ireland Unlimited Company, priority 2022, published 2025).

Test: rilpivirine particle size by wet dispersion laser diffraction
Format: physicochemical
Conditions: rilpivirine nanoparticles used for the aqueous compositions of Example 5
Protocol: The compositions were freeze dried and reconstituted with water to provide 9 mL of the reconstituted aqueous composition at time t=0, freeze dried and reconstituted with water to provide 9 mL of the reconstituted aqueous composition after being stored under conditions of 25° C./60% RH and 40° C./75% RH for 1 month, and freeze dried and reconstituted with water to provide 9 mL of the reconstituted aqueous composition after being stored under conditions of 25° C./60% RH for 6 months. The rilpivirine particle sizes were measured in both instances following the method below.
The volume-based particle size distribution of the rilpivirine suspensions was determined by means of wet dispersion laser diffraction, using a Malvern Mastersizer 3000 laser diffraction (Malvern Instruments) and Hydro MV wet dispersion module.

Cc1cc(/C=C/C#N)cc(C)c1Nc1ccnc(Nc2ccc(C#N)cc2)n1 [rilpivirine nanoparticles, 4-[[4-[[4-[(1E)-2-cyanoethenyl]-2,6-dimethylphenyl]amino]-2-pyrimidinyl]amino]-benzonitrile]
Dv10: about 96.5 nm | Dv50: about 224 nm | Dv90: about 509 nm
